{"source": "patent US5527777A", "about": "“Peptide compounds, in particular LHRH-antagonists” (Schering Aktiengesellschaft, priority 1991, dated 1996)", "key": {"[1]": {"tested_on": "release of histamine", "experiment": "in vivo observation of edematous changes on face/extremities as sign of histamine release", "set-up": "species or system rats", "conditions": "0.1 to 5 mg/kg of body weight subcutaneously", "excerpt": "In addition to the reduction of the testosterone value, the release of histamine is of importance. […] This in vivo test is ascribed considerably more relevance than the Mastzell test, used in many cases."}, "[2]": {"tested_on": "serum testosterone concentration", "experiment": "testosterone-reducing potential in intact adult male rats (serum testosterone, radioimmunological)", "format": "in vivo", "conditions": "subcutaneous, one time, 0.25 mg/kg of body weight, after 24 hours", "procedure": "The peptide compounds are to be used in the treatment of benign enlargements of the prostate and carcinomas of the prostate. Therefore, the testosterone-reducing potential is tested. For this purpose, generally clearly higher dosages of one and the same antagonists are required than for the induction of an inhibition of ovulation. In the test process used here, intact adult male rats are subcutaneously treated one time with the substance to be tested. The effect on the serum testosterone concentration after 24 hours is determined radioimmunologically (kit of the Biermann company)."}, "[3]": {"tested_on": "Mastzell", "experiment": "Mastzell test (release of histamine)", "format": "cell-based", "conditions": "ED50 still not achieved at highest stated concentration"}}, "data": [{"substance": "Ac--D--Nal--D--Cpa--D--Pal--Ser--Tyr--D--Cit--Leu--Ahx(Mor)--Pro--D--Ala--NH2 [Example 13]", "values": [{"measurement": "edematous changes on the face and/or on the extremities (typical of histamine release)", "setting": "[1]", "result": "occur at none of the tested dosages"}, {"measurement": "inhibition of serum testosterone concentration in comparison to the control", "setting": "[2]", "result": 26, "unit": "%"}, {"measurement": "ED50 of the release of histamine", "setting": "[3]", "result": "> 10", "unit": "µg/mL"}]}]}
